Results: patent US20090181929A1, “ORGANIC COMPOUNDS” (priority 2006, published 2009)

Each compound was assayed against T1, CETP (Homo sapiens, UniProt P11597) (assay: in vitro CETP activity in human plasma (BODIPY-CE donor microemulsion, fluorescence)).
T1 construct: Human plasma (50 μL), assay buffer (35 μL) and test compound; tissue New Drug Development Research Center, Inc; host or cells: human EDTA plasma from healthy men
T1 sequence (P11597 18-493): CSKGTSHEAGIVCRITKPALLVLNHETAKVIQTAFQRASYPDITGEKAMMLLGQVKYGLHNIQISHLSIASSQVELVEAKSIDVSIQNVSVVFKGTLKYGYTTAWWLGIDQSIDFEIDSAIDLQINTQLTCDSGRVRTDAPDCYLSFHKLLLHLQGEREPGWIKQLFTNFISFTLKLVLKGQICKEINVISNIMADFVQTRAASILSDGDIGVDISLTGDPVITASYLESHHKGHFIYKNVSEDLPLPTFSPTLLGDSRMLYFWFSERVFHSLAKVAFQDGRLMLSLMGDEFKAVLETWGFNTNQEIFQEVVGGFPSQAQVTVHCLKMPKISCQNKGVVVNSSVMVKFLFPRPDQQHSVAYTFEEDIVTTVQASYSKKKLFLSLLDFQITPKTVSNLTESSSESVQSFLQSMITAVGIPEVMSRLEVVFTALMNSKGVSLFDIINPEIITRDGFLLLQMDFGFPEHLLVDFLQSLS
Format: biochemical
Procedure: For purposes of detecting the in vitro and in vivo CETP activity, human pro-apolipoprotein AI (pro-apoAI) and donor microemulsion are prepared as follows. The cDNA of human pro-apoAI (NCBI accession number: NM_000039) is cloned from human liver Quick-Clone™ cDNA (Clontech, CA) and inserted to a pET28a vector (Novagen, Germany) for bacterial expression. Expressed protein as a fusion protein with 6×His-tag at N-terminus in BL-21 Gold (DE3) (Strategene, CA) is purified using HiTrap Chelating (GE Healthcare, CT). Pro-apoAI containing microemulsion as a donor particle is prepared following previous reports (J. Biol. Chem., 280:14918-22). Glyceryl trioleate (62.5 ng, Sigma, Mo.), 3-sn-phosphatidylcholine (583 ng, Wako Pure Chemical Industries, Japan), and cholesteryl BODIPY® FL C12 (250 ng, Invitrogen, CA) are dissolved in 1 mL of chloroform. The solution is evaporated, then residual solvent is removed in vacuum for more than 1 hr. The dried lipid mixture is dissolved in 500 μL of the assay buffer (50 mM Tris-HCl (pH7.4) containing 150 mM NaCl and 2 mM EDTA) and sonicated at 50° C. with a microtip (MICROSON™ ULTRASONIC CELL DISRUPTOR, Misonix, Farmingdale, N.Y.) at output power 006 for 2 min. After sonication, the solution is cooled to 40° C., added to 100 μg of human pro-apoAI, and sonicated at output power 004 for 5 min at 40° C. The solution, BODIPY-CE microemulsion as a donor molecule is stored at 4° C. after filtration through a 0.45 μm PVDF filter.
For purposes of detecting in vitro CETP activity, human EDTA plasma samples from healthy men are purchased from New Drug Development Research Center, Inc. Donor solution is prepared by a dilution of donor microemulsion with assay buffer. Human plasma (50 μL), assay buffer (35 μL) and test compound dissolved in dimethylsulfoxide (1 μL) are added to each well of 96 well half area black flat bottom plate. The reaction is started by the addition of donor solution (14 μL) into each well. Fluorescence intensities are measured every 30 min at 37° C. with excitation wave length of 485 nm and emission wavelength of 535 nm. The CETP activity (Fl/min) is defined as the changes of fluorescence intensity from 30 to 90 min. The IC50 value is obtained by the logistic equation (Y=Bottom+(Top-Bottom)/(1+(x/IC50)̂Hill slope) using Origin software, version 7.5 SR3.
Compound CCN(CC1CCCC1)c1ncc(N2CCC2)cc1CN(Cc1cc(C(F)(F)F)cc(C(F)(F)F)c1)c1nnn(C)n1 [Compound 1, (5-Azetidin-1-yl-3-{[(3,5-bis-trifluoromethyl-benzyl)-(2-methyl-2H-tetrazol-5-yl)-amino]-methyl}-pyridin-2-yl)-cyclopentylmethyl-ethyl-amine] has an IC50 of 260 nM. CCN(CC1CCCC1)c1ncc(N(C)C(C)=O)cc1CN(Cc1cc(C(F)(F)F)cc(C(F)(F)F)c1)c1nnn(C)n1 [Compound 2, N-[5-{[(3,5-Bis-trifluoromethyl-benzyl)-(2-methyl-2H-tetrazol-5-yl)-amino]-methyl}-6-(cyclopentylmethyl-ethyl-amino)-pyridin-3-yl]-N-methyl-acetamide] gave an IC50 of 370 nM. For CCN(CC1CCCC1)c1ncc(C)cc1CN(Cc1cc(C(F)(F)F)cc(C(F)(F)F)c1)c1nnn(C)n1 [Compound 5, (3-{[(3,5-Bis-trifluoromethyl-benzyl)-(2-methyl-2H-tetrazol-5-yl)-amino]-methyl}-5-methyl-pyridin-2-yl)-cyclopentylmethyl-ethyl-amine], the IC50 was 300 nM. CCCCN(C)c1cnc(N(CC)CC2CCCC2)c(CN(Cc2cc(C(F)(F)F)cc(C(F)(F)F)c2)c2nnn(C)n2)c1 [Compound 7, 3-{[(3,5-Bis-trifluoromethyl-benzyl)-(2-methyl-2H-tetrazol-5-yl)-amino]-methyl}-N*5*-butyl-N*2*-cyclopentylmethyl-N*2*-ethyl-N*5*-methyl-pyridine-2,5-diamine] showed an IC50 of 720 nM. Work on CCN(CC1CCCC1)c1ncc(I)cc1CN(Cc1cc(C(F)(F)F)cc(C(F)(F)F)c1)c1nnn(C)n1 [Compound 6, (3-{[(3,5-Bis-trifluoromethyl-benzyl)-(2-methyl-2H-tetrazol-5-yl)-amino]-methyl}-5-iodo-pyridin-2-yl)-cyclopentylmethyl-ethyl-amine] yielded an IC50 of 230 nM. Work on CCN(CC1CCCC1)c1nc(C)c(Br)cc1CN(Cc1cc(C(F)(F)F)cc(C(F)(F)F)c1)c1nnn(C)n1 [Compound 4, (3-{[(3,5-Bis-trifluoromethyl-benzyl)-(2-methyl-2H-tetrazol-5-yl)-amino]-methyl}-5-bromo-6-methyl-pyridin-2-yl)-cyclopentylmethyl-ethyl-amine] yielded an IC50 of 110 nM. With CCN(CC1CCCC1)c1ncc([N+](=O)[O-])cc1CN(Cc1cc(C(F)(F)F)cc(C(F)(F)F)c1)c1nnn(C)n1 [Compound 8, (3-{[(3,5-Bis-trifluoromethyl-benzyl)-(2-methyl-2H-tetrazol-5-yl)-amino]-methyl}-5-nitro-pyridin-2-yl)-cyclopentylmethyl-ethyl-amine] the IC50 was 630 nM. With CCN(CC1CCCC1)c1ncc(SC)cc1CN(Cc1cc(C(F)(F)F)cc(C(F)(F)F)c1)c1nnn(C)n1 [Compound 3, (3-{[(3,5-Bis-trifluoromethyl-benzyl)-(2-methyl-2H-tetrazol-5-yl)-amino]-methyl}-5-methylsulfanyl-pyridin-2-yl)-cyclopentylmethyl-ethyl-amine] the IC50 was 140 nM.
